# Test results reported in patent publication US20050222200A1, “AMIDE DERIVATIVES AS ION CHANNEL LIGANDS AND PHARMACEUTICAL COMPOSITIONS AND METHODS OF USING THE SAME” (Renovis, Inc., priority 2003, published 2005).
# Biological target: T1, VR1 (Homo sapiens, UniProt Q8NER1)
# T1 construct: expressed in transfected cells; host or cells: 293 cells ("293 neurons" [sic])
# Assay: High throughput calcium imaging assay of VR1 antagonists (Fura2, Flex Station, 96 well); note: test concentration or dose not given here
# Assay type: cell-based
# Conditions: Table 1 activity class
# T1 sequence (Q8NER1 whole entry, species assumed): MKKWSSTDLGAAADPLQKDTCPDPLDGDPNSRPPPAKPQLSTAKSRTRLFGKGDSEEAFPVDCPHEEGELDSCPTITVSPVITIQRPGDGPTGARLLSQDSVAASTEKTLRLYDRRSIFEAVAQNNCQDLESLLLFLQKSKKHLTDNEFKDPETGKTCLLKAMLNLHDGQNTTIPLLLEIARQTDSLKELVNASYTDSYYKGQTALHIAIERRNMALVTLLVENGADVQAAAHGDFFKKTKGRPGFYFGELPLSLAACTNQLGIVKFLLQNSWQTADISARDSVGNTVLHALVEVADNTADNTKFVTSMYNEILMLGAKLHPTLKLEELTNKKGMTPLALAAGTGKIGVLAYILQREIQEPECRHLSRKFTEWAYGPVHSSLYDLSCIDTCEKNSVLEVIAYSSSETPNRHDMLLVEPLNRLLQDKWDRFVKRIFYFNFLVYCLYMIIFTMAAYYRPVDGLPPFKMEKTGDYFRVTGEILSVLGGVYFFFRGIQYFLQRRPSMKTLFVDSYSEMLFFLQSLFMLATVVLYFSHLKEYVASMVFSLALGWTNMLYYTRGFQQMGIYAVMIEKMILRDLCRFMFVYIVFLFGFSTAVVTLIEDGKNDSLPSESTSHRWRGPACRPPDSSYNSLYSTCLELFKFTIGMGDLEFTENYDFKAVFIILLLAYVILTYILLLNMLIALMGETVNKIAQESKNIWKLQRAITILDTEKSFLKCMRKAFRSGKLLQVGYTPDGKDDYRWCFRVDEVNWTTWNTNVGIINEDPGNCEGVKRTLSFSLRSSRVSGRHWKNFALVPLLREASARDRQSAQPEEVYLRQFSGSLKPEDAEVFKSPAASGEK
row,SMILES,inhibition of calcium ion influx induced by capsaicin stimulation
1,CC(C)(C)/C=C/c1ccc(C(=O)NCCc2ccccc2Cl)cc1 [Compound 11],++++ (compound exhibited 75% or greater inhibition of calcium ion influx induced by capsaicin stimulation)
2,CC(C)(C)/C=C/c1ccc(C(=O)NC2CCC(C(C)(C)C)CC2)cc1 (stereo not shown) [Compound 12],+ (compound exhibited 0-25% inhibition of calcium ion influx induced by capsaicin stimulation)
3,CC(C)(C)/C=C/c1ccc(C(=O)NCc2ccccc2)cc1 [Compound 13],+ (compound exhibited 0-25% inhibition of calcium ion influx induced by capsaicin stimulation)
4,CCCNC(=O)c1ccc(/C=C/C(C)(C)C)cc1 [Compound 14],+ (compound exhibited 0-25% inhibition of calcium ion influx induced by capsaicin stimulation)
5,COc1ccc(NC(=O)c2ccc(/C=C/C(C)(C)C)cc2)cc1 [Compound 15],+ (compound exhibited 0-25% inhibition of calcium ion influx induced by capsaicin stimulation)
6,CC(C)(C)/C=C/c1ccc(C(=O)NCC2CCCO2)cc1 (stereo not shown) [Compound 16],+ (compound exhibited 0-25% inhibition of calcium ion influx induced by capsaicin stimulation)
7,CC(C)(C)/C=C/c1ccc(C(=O)NCc2ccc3c(c2)OCO3)cc1 [Compound 17],+ (compound exhibited 0-25% inhibition of calcium ion influx induced by capsaicin stimulation)
8,CC(C)(C)/C=C/c1ccc(C(=O)NCCc2ccc(S(C)(=O)=O)cc2)cc1 [Compound 20],+ (compound exhibited 0-25% inhibition of calcium ion influx induced by capsaicin stimulation)
9,COc1ccc(CCNC(=O)c2ccc(/C=C/C(C)(C)C)cc2)cc1OC [Compound 24],+ (compound exhibited 0-25% inhibition of calcium ion influx induced by capsaicin stimulation)
10,CC(C)(C)/C=C/c1ccc(C(=O)NC(C)(C)c2ccccc2)cc1 [Compound 26],+ (compound exhibited 0-25% inhibition of calcium ion influx induced by capsaicin stimulation)
11,CC(C)(C)/C=C/c1ccc(C(=O)NCc2cccs2)cc1 [Compound 29],+ (compound exhibited 0-25% inhibition of calcium ion influx induced by capsaicin stimulation)
12,CC(C)(C)/C=C/c1ccc(C(=O)Nc2ccccc2C#N)cc1 [Compound 30],++ (compound exhibited 25-50% inhibition of calcium ion influx induced by capsaicin stimulation)
13,COc1ccccc1NC(=O)c1ccc(/C=C/C(C)(C)C)cc1 [Compound 31],+ (compound exhibited 0-25% inhibition of calcium ion influx induced by capsaicin stimulation)
14,CC(C)(C)/C=C/c1ccc(C(=O)Nc2ccccc2Cl)cc1 [Compound 33],+ (compound exhibited 0-25% inhibition of calcium ion influx induced by capsaicin stimulation)
15,COc1ccc(CNC(=O)c2ccc(/C=C/C(C)(C)C)cc2)cc1OC [Compound 35],+ (compound exhibited 0-25% inhibition of calcium ion influx induced by capsaicin stimulation)
16,COc1ccc(NC(=O)c2ccc(/C=C/C(C)(C)C)cc2)cc1Cl [Compound 37],+ (compound exhibited 0-25% inhibition of calcium ion influx induced by capsaicin stimulation)
17,CC(C)(C)/C=C/c1ccc(C(=O)Nc2cccc(C#N)c2)cc1 [Compound 38],+ (compound exhibited 0-25% inhibition of calcium ion influx induced by capsaicin stimulation)

row,SMILES,inhibition of calcium ion influx induced by capsaicin stimulation
1,CC(C)(C)/C=C/c1ccc(C(=O)Nc2ccccc2CCO)cc1 [Compound 39],++++ (compound exhibited 75% or greater inhibition of calcium ion influx induced by capsaicin stimulation)
2,CC(C)(C)/C=C/c1ccc(C(=O)Nc2ccc(C(C)(C)C)cc2)cc1 [Compound 40],+++ (compound exhibited 50-75% inhibition of calcium ion influx induced by capsaicin stimulation)
3,CC(C)c1ccc(NC(=O)c2ccc(/C=C/C(C)(C)C)cc2)cc1 [Compound 41],++ (compound exhibited 25-50% inhibition of calcium ion influx induced by capsaicin stimulation)
4,CCCCc1ccc(NC(=O)c2ccc(/C=C/C(C)(C)C)cc2)cc1 [Compound 42],+ (compound exhibited 0-25% inhibition of calcium ion influx induced by capsaicin stimulation)
5,CC(C)(C)/C=C/c1ccc(C(=O)Nc2ccc(C3CCCCC3)cc2)cc1 [Compound 43],+ (compound exhibited 0-25% inhibition of calcium ion influx induced by capsaicin stimulation)
6,COc1cc(NC(=O)c2ccc(/C=C/C(C)(C)C)cc2)cc(C(F)(F)F)c1 [Compound 44],++++ (compound exhibited 75% or greater inhibition of calcium ion influx induced by capsaicin stimulation)
7,Cc1ccc2[nH]c(=O)c3ccc(/C=C/C(C)(C)C)cc3c2c1 [Compound 45],++++ (compound exhibited 75% or greater inhibition of calcium ion influx induced by capsaicin stimulation)
8,CC(C)(C)/C=C/c1ccc(C(=O)Nc2ccc3c(c2)OCO3)cc1 [Compound 47],++++ (compound exhibited 75% or greater inhibition of calcium ion influx induced by capsaicin stimulation)
9,Cc1cc(C)nc(NC(=O)c2ccc(/C=C/C(C)(C)C)cc2)c1 [Compound 48],++ (compound exhibited 25-50% inhibition of calcium ion influx induced by capsaicin stimulation)
10,CC(C)(C)/C=C/c1ccc(C(=O)NCc2ccncc2)cc1 [Compound 49],++++ (compound exhibited 75% or greater inhibition of calcium ion influx induced by capsaicin stimulation)
11,CC(C)(C)/C=C/c1ccc(C(=O)Nc2ccncc2)cc1 [Compound 52],++++ (compound exhibited 75% or greater inhibition of calcium ion influx induced by capsaicin stimulation)
12,CC(C)(C)/C=C/c1ccc(C(=O)Nc2cccnc2)cc1 [Compound 53],++++ (compound exhibited 75% or greater inhibition of calcium ion influx induced by capsaicin stimulation)
13,CC(C)(C)/C=C/c1ccc(C(=O)Nc2cc[nH]n2)cc1 [Compound 54],+ (compound exhibited 0-25% inhibition of calcium ion influx induced by capsaicin stimulation)
14,CC(C)(C)/C=C/c1ccc(C(=O)Nc2nccs2)cc1 [Compound 55],+ (compound exhibited 0-25% inhibition of calcium ion influx induced by capsaicin stimulation)
15,CC(C)(C)/C=C/c1ccc(C(=O)NC2CCC(Cc3ccccc3)CC2)cc1 (stereo not shown) [Compound 56],+ (compound exhibited 0-25% inhibition of calcium ion influx induced by capsaicin stimulation)
16,CC(C)(C)/C=C/c1ccc(C(=O)NCCN2CCNCC2)cc1 [Compound 60],+ (compound exhibited 0-25% inhibition of calcium ion influx induced by capsaicin stimulation)
17,CN(C)c1cccc(NC(=O)c2ccc(/C=C/C(C)(C)C)cc2)c1 [Compound 61],++++ (compound exhibited 75% or greater inhibition of calcium ion influx induced by capsaicin stimulation)
